Measurements taken from publication PMC12155096 (International Journal of Molecular Sciences, 2025).
Counter-ions that a name gives are not always drawn. Like-named read-outs stand apart in the source and are kept apart here.

Columns and labels:
[1] = biological target: Photinus pyralis (firefly) luciferase (Photinus pyralis, UniProt P08659); test: biochemical; assay type: biochemical
human CYP1A2 [2] = biological target: T1, human CYP1A2 (Homo sapiens, UniProt P05177)
T1 sequence (P05177 1-516): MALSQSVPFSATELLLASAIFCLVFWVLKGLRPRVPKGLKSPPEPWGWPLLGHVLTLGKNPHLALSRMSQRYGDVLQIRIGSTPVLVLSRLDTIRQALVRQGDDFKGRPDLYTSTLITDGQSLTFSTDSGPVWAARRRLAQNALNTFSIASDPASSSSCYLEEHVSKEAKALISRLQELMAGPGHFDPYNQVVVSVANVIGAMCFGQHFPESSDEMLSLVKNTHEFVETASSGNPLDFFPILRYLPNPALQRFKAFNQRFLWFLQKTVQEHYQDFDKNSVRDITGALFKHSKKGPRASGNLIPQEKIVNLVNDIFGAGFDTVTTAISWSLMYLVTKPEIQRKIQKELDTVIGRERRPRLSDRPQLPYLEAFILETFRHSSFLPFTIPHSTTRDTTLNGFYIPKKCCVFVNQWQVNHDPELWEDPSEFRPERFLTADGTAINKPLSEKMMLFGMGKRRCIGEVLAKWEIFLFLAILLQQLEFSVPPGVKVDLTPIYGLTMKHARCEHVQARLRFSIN

human CYP2C9 [3] = biological target: T2, human CYP2C9 (Homo sapiens, UniProt P11712)
human CYP2C19 [4] = biological target: T3, human CYP2C19 (Homo sapiens, UniProt P33261)
human CYP2D6 = human CYP2D6 (Homo sapiens, UniProt P10635)
CYP3A4 = CYP3A4 (Homo sapiens, UniProt P08684)
human CYP1A2 [5] = biological target: T1, human CYP1A2; test: biochemical
human CYP2C9 [6] = biological target: T2, human CYP2C9; test: biochemical
human CYP2C19 [7] = biological target: T3, human CYP2C19; test: biochemical

Chain of CYP3A4 (P08684 whole entry): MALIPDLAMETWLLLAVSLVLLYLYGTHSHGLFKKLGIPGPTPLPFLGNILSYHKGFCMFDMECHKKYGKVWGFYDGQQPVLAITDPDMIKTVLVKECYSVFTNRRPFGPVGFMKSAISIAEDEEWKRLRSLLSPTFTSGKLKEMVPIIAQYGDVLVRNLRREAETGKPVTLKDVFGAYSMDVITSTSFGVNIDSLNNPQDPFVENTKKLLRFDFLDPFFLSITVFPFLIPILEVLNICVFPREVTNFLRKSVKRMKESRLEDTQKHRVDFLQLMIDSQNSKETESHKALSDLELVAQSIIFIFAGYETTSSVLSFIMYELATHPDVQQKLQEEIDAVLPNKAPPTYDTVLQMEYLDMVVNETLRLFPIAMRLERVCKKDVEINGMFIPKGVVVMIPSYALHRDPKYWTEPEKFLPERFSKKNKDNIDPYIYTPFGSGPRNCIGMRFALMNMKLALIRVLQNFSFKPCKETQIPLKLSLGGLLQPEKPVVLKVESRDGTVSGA
T3 sequence (P33261 whole entry): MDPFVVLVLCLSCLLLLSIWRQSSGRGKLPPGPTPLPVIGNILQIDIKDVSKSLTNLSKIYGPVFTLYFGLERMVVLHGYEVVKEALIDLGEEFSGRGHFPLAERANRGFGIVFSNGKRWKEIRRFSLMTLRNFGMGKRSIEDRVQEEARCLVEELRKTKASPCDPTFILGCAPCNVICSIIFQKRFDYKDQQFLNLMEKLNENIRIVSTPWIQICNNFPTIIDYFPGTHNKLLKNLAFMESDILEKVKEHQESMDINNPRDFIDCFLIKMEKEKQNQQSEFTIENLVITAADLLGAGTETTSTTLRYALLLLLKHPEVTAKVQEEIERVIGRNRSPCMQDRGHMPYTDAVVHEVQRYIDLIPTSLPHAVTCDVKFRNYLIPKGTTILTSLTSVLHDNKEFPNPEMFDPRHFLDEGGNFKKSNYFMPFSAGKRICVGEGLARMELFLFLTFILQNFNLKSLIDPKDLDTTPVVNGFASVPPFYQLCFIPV
Chain of Photinus pyralis (firefly) luciferase (P08659 whole entry): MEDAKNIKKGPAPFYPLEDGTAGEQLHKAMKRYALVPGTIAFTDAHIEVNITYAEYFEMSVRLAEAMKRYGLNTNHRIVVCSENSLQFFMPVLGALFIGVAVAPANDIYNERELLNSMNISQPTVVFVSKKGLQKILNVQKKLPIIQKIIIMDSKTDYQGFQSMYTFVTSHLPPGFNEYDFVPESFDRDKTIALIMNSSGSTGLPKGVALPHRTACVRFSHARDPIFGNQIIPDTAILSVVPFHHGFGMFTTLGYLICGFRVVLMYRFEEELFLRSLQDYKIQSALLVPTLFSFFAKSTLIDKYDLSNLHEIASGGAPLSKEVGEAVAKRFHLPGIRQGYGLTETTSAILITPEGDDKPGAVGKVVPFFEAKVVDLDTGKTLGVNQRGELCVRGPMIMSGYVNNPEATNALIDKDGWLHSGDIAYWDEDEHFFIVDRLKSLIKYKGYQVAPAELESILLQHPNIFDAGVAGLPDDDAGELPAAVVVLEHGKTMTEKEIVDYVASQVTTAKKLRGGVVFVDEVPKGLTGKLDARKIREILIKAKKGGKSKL
Chain of human CYP2D6 (P10635 whole entry): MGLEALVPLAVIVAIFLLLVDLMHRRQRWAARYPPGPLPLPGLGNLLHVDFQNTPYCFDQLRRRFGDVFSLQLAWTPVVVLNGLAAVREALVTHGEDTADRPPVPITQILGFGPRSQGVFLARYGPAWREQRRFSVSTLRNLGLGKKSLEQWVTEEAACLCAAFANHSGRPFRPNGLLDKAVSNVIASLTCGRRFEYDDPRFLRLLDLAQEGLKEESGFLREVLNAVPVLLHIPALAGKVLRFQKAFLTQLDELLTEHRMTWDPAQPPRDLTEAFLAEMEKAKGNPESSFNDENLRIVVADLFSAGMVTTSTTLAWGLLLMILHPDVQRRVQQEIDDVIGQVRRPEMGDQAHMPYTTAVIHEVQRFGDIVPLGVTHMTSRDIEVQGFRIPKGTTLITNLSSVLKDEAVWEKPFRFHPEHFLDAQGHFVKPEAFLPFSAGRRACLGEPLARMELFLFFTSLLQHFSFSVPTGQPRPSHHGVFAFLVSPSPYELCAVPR
T2 sequence (P11712 whole entry): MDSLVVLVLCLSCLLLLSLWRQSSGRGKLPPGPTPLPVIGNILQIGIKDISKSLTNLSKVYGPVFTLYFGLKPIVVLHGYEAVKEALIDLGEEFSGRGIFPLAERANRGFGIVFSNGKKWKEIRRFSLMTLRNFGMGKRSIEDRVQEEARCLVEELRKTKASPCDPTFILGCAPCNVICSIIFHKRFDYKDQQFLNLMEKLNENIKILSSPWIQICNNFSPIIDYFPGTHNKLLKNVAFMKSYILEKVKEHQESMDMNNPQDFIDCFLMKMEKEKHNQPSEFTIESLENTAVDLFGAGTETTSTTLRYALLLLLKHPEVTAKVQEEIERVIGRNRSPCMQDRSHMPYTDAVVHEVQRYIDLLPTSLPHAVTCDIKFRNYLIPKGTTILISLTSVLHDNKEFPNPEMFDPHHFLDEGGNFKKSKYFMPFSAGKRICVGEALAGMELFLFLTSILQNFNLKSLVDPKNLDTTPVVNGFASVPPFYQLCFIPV

## CCOP(=O)([O-])OCC.CCn1cc[n+](C)c1
[1]
  Luciferase Efficacy (in parenthesis): 86.36 ± 7.02 (-39 ± 30) %
[1]; read-out: Luciferase IC50 (half-maximal inhibitory concentration)
  IC50: 86.4 µM
Human CYP1A2 [2]
  CYP1A2 Efficacy (in parenthesis): 78.99 ± 0 (-105 ± 5) %
  IC50: 79 µM
Human CYP2C9 [3]
  CYP2C9 Efficacy (in parenthesis): 58.2 ± 3.94 (-117 ± 2) %
  IC50: 58.2 µM
Human CYP2C19 [4]
  CYP2C19 Efficacy (in parenthesis): 68.44 ± 11.66 (-161 ± 32) %
  IC50: 68.4 µM
Human CYP2D6
  CYP2D6 Efficacy (in parenthesis): 0.61 ± 0.29 (-97 ± 6) %
  IC50: 0.61 µM
CYP3A4
  CYP3A4 Efficacy (in parenthesis): 45.03 ± 9.43 (-76 ± 7) %
  IC50: 45 µM

## CNC(C)Cc1ccc2c(c1)OCO2.Cl (centres unmarked)
[1]
  Luciferase IC50 (half-maximal inhibitory concentration): Inactive
Human CYP1A2 [2]
  CYP1A2 IC50 (half-maximal inhibitory concentration): Inactive
Human CYP2C9 [3]
  CYP2C9 IC50 (half-maximal inhibitory concentration): Inactive
Human CYP2C19 [4]
  CYP2C19 IC50 (half-maximal inhibitory concentration): Inactive
Human CYP2D6
  IC50: 0.4 µM
CYP3A4
  CYP3A4 IC50 (half-maximal inhibitory concentration): Inactive

## Cl.ClCCCN1CCN(c2cccc(Cl)c2)CC1
[1]
  Luciferase IC50: Inactive
Human CYP1A2 [2]
  AC50: 16.1 µM
  CYP1A2 Efficacy: 16.12 ± 1.09 (-77 ± 4) %
Human CYP2C9 [3]
  AC50: 16.8 µM
  CYP2C9 Efficacy: 16.75 ± 1.09 (-48 ± 5) %
Human CYP2C19 [4]
  AC50: 8.86 µM
  CYP2C19 Efficacy: 8.86 ± 2.03 (-125 ± 5) %
Human CYP2D6
  AC50: 0.79 µM
  CYP2D6 Efficacy: 0.79 ± 0.18 (-96 ± 4) %
CYP3A4
  AC50: 15.5 µM
  CYP3A4 IC50: 15.49 ± 0 (111 ± 12) µM

## CC(C)(C)c1cc(CCC(=O)NN)cc(C(C)(C)C)c1O
[1]
  Luciferase IC50 (half-maximal inhibitory concentration): Inactive
Human CYP1A2 [2]
  CYP1A2 Efficacy (in parenthesis): 6.97 ± 1.74 (-102 ± 5) %
  IC50: 6.97 µM
Human CYP2C9 [3]
  CYP2C9 Efficacy (in parenthesis): 5.92 ± 1.06 (-98 ± 3) %
  IC50: 5.92 µM
Human CYP2C19 [4]
  CYP2C19 Efficacy (in parenthesis): 5.4 ± 1.6 (-136 ± 2) %
  IC50: 5.4 µM
Human CYP2D6
  CYP2D6 Efficacy (in parenthesis): 34.28 ± 2.23 (-95 ± 1) %
  IC50: 34.3 µM
CYP3A4
  CYP3A4 Efficacy (in parenthesis): 0.14 ± 0.02 (-94 ± 4) %
  IC50: 0.14 µM

## CCCC[P+](CC)(CCCC)CCCC.CCOP(=O)([O-])OCC
[1]
  Luciferase IC50: Inactive
Human CYP1A2 [2]
  CYP1A2 IC50: Inactive
Human CYP2C9 [3]
  CYP2C9 IC50: Inactive
Human CYP2C19 [4]
  CYP2C19 Efficacy: 70.71 ± 33.56 (-88 ± 37) %
Human CYP2D6
  IC50: 0.06 µM
CYP3A4
  CYP3A4 IC50: Inactive

## Cl.Cl.NCCNc1cccc2ccccc12
[1]
  Luciferase IC50: Inactive
Human CYP1A2 [2]
  CYP1A2 Efficacy: 0.57 ± 0.07 (-100 ± 5) %
Human CYP2C9 [3]
  CYP2C9 Efficacy: 17.25 ± 2.37 (-110 ± 3) %
Human CYP2C19 [4]
  CYP2C19 Efficacy: 24.7 ± 6.17 (-146 ± 5) %
Human CYP2D6
  CYP2D6 Efficacy: 5.04 ± 0.58 (-104 ± 5) %
CYP3A4
  IC50: 31.8 µM

## Cc1cc(CCC(=O)OCCOCCOCCOC(=O)CCc2cc(C)c(O)c(C(C)(C)C)c2)cc(C(C)(C)C)c1O
[1]
  Luciferase IC50 (half-maximal inhibitory concentration): Inactive
Human CYP1A2 [2]
  CYP1A2 IC50 (half-maximal inhibitory concentration): Inactive
Human CYP2C9 [3]
  CYP2C9 Efficacy (in parenthesis): 0.55 ± 0.06 (-101 ± 5) %
  IC50: 0.55 µM
Human CYP2C19 [4]
  CYP2C19 Efficacy (in parenthesis): 4.01 ± 1.12 (-130 ± 10) %
  IC50: 4.01 µM
Human CYP2D6
  CYP2D6 Efficacy (in parenthesis): 9.78 ± 0 (-91 ± 3) %
  IC50: 9.78 µM
CYP3A4
  CYP3A4 Efficacy (in parenthesis): 2.56 ± 0.17 (-86 ± 4) %
  IC50: 2.56 µM

## CC[C@]12CCCN3CCc4c(n(c5ccccc45)C(=O)C1)[C@@H]32 [(-)-Eburnamonine]
[1]
  Luciferase IC50 (half-maximal inhibitory concentration): Inactive
Human CYP1A2 [2]
  IC50: 24.1 µM
Human CYP2C9 [3]
  IC50: 20.1 µM
Human CYP2C19 [4]
  IC50: 6.17 µM
CYP3A4
  IC50: 4.38 µM

## CN(C)CCN(Cc1ccc(Cl)cc1)c1ccccn1.Cl [Chloropyramine hydrochloride]
[1]
  Luciferase IC50: Inactive
Human CYP1A2 [2]
  CYP1A2 Efficacy: 20.13 ± 6.48 (-40 ± 3) %
Human CYP2C19 [4]
  CYP2C19 Efficacy: 7.51 ± 1.03 (-122 ± 9) %
Human CYP2D6
  CYP2D6 Efficacy: 0.23 ± 0.05 (-101 ± 4) %
CYP3A4
  CYP3A4 IC50: Inactive

## C[C@@H](NCCCc1cccc(C(F)(F)F)c1)c1cccc2ccccc12 [Cinacalcet hydrochloride]
[1]
  Luciferase IC50: Inactive
Human CYP2D6; human
  IC50: 0.05 µM
Human CYP1A2 [5]
  IC50: 26.9 ± 8.25 µM
Human CYP2C9 [6]
  IC50: 38.9 µM
Human CYP2C19 [7]
  IC50: 10.8 ± 2.69 µM
